Patent US9487488B2, “Sulfonamide compound” (MITSUBISHI TANABE PHARMA CORPORATION, priority 2012, dated 2016)

Biological target: human TRPM8 (Homo sapiens (Human), UniProt Q7Z2W7)
Experiment: TRPM8 inhibition assay (menthol-induced calcium influx, FDSS)
Format: cell-based
Conditions: HEK293 cells stably expressing human TRPM8; 100 μmol/L menthol; Fura-2AM calcium signal; read-out: TRPM8 Blocking Test (IC50/nmol/L)
Protocol: The functional activity of a test compound was determined by measuring change in intracellular calcium concentration using a calcium sensitive fluorescent dye. The change in fluorescent signal was measured by the cell imaging technology by Hamamatsu Photonics's Functional Drug Screening System (FDSS).
HEK293 cells stably expressing human TRPM8 were grown in a flask. On assay day, the culture medium was removed from the flask, and cells were washed with phosphate-buffered saline (PBS) and harvested with PBS containing 2 mmol/L of ethylenediaminetetraacetic acid disodium salt (EDTA-2Na). […] Subsequently, suspended 20,000 to 50,000 cells per well were incubated with a test compound (at varying concentrations) in each well at 37° C. for 20 minutes. Change in intracellular calcium concentration evoked by 100 μmol/L of menthol was measured for 2 minutes using FDSS. […] The concentration-response curve was generated using the average of quadruplicate wells for each data point.

Chain of human TRPM8 (Q7Z2W7 whole entry): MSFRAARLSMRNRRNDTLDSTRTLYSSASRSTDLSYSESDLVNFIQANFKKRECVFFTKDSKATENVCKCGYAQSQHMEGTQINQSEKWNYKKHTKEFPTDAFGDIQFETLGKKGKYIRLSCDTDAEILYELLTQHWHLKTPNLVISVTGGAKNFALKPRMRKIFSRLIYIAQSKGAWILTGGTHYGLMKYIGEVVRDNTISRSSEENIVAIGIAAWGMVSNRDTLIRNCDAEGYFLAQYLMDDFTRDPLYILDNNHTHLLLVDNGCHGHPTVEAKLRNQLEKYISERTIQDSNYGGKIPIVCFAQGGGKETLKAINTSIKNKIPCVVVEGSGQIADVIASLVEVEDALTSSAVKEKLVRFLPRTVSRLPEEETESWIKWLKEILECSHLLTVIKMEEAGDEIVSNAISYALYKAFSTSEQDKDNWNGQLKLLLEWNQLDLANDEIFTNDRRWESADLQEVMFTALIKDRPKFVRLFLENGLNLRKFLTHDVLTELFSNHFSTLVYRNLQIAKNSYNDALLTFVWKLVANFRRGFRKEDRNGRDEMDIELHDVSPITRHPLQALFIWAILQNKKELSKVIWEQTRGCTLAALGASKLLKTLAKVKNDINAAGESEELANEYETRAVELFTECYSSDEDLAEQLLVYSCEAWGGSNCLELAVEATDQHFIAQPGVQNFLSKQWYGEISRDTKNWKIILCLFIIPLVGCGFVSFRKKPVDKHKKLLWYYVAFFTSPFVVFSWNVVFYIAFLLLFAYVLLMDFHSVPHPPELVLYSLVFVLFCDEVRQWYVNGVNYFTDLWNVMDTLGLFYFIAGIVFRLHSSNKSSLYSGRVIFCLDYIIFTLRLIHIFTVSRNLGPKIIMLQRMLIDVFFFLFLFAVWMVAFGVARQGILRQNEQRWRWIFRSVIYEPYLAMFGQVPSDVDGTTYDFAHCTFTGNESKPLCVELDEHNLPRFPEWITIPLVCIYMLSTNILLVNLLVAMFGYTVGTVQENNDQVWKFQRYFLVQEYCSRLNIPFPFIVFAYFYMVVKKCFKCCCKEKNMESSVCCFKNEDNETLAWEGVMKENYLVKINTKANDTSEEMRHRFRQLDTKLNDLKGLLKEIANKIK

Row | IC50 [nmol/L] | SMILES
1 | 0.3 | O=S(=O)(c1ccc(-c2nnn[nH]2)cc1)N(Cc1ccc(OC(F)(F)F)cc1)c1ncc2ccccc2c1C1CC1 [Example 1, N-(4-cyclopropylisoquinolin-3-yl)-4-(1H-tetrazol-5-yl)-N-[4-(trifluoromethoxy)benzyl]benzenesulfonamide]
2 | 0.7 | O=S(=O)(c1ccc(-c2nnn[nH]2)nc1)N(Cc1ccc(OC(F)(F)F)cc1)c1ncc2ccccc2c1C1CC1 [Example 2, N-(4-cyclopropylisoquinolin-3-yl)-6-(1H-tetrazol-5-yl)-N-[4-(trifluoromethoxy)benzyl]pyridine-3-sulfonamide]
3 | 7.6 | O=S(=O)(c1ccc(-c2nnn[nH]2)cn1)N(Cc1ccc(OC(F)(F)F)cc1)c1ncc2ccccc2c1C1CC1 [Example 3, N-(4-cyclopropylisoquinolin-3-yl)-5-(1H-tetrazol-5-yl)-N-[4-(trifluoromethoxy)benzyl]pyridine-2-sulfonamide]
4 | 3.4 | O=S(=O)(c1ccc(-c2ncn[nH]2)cc1)N(Cc1ccc(OC(F)(F)F)cc1)c1ncc2ccccc2c1C1CC1 [Example 5, N-(4-cyclopropylisoquinolin-3-yl)-4-(2H-1,2,4-triazol-3-yl)-N-[4-(trifluoromethoxy)benzyl]benzenesulfonamide]
5 | 1.7 | O=S(=O)(c1ccc(-c2ncn[nH]2)nc1)N(Cc1ccc(OC(F)(F)F)cc1)c1ncc2ccccc2c1C1CC1 [Example 6, N-(4-cyclopropylisoquinolin-3-yl)-6-(1H-1,2,4-triazol-5-yl)-N-[4-(trifluoromethoxy)benzyl]pyridine-3-sulfonamide]
6 | 1 | O=c1[nH]c(-c2ccc(S(=O)(=O)N(Cc3ccc(OC(F)(F)F)cc3)c3ncc4ccccc4c3C3CC3)cc2)no1 [Example 7, N-(4-cyclopropylisoquinolin-3-yl)-4-(5-oxo-4,5-dihydro-1,2,4-oxadiazol-3-yl)-N-[4-(trifluoromethoxy)benzyl]benzenesulfonamide]
7 | 2.3 | O=c1[nH]c(-c2ccc(S(=O)(=O)N(Cc3ccc(OC(F)(F)F)cc3)c3ncc4ccccc4c3C(F)(F)F)cc2)no1 [Example 8, 4-(5-oxo-4,5-dihydro-1,2,4-oxadiazol-3-yl)-N-[4-(trifluoromethoxy)benzyl]-N-[4-(trifluoromethyl)isoquinolin-3-yl]benzenesulfonamide]
8 | 1.1 | O=c1[nH]c(-c2ccc(S(=O)(=O)N(Cc3ccc(OC(F)(F)F)cc3)c3ncc4ccccc4c3C3CC3)cn2)no1 [Example 9, N-(4-cyclopropylisoquinolin-3-yl)-6-(5-oxo-4,5-dihydro-1,2,4-oxadiazol-3-yl)-N-[4-(trifluoromethoxy)benzyl]pyridine-3-sulfonamide]
9 | 23.9 | CC(=O)NCc1ccc(S(=O)(=O)N(Cc2ccc(OC(F)(F)F)cc2)c2ncc3ccccc3c2C2CC2)cc1 [Example 10, N-[4-({(4-cyclopropylisoquinolin-3-yl)[4-(trifluoromethoxy)benzyl]amino}sulfonyl)benzyl]acetamide]
10 | 29.5 | CS(=O)(=O)NCc1ccc(S(=O)(=O)N(Cc2ccc(OC(F)(F)F)cc2)c2ncc3ccccc3c2C2CC2)cc1 [Example 11, N-(4-cyclopropylisoquinolin-3-yl)-4-{[(methylsulfonyl)amino]methyl}-N-[4-(trifluoromethoxy)benzyl]benzenesulfonamide]
11 | 40.2 | O=S(=O)(c1ccc(CNS(=O)(=O)C(F)(F)F)cc1)N(Cc1ccc(OC(F)(F)F)cc1)c1ncc2ccccc2c1C1CC1 [Example 12, N-(4-cyclopropylisoquinolin-3-yl)-N-[4-(trifluoromethoxy)benzyl]-4-({[(trifluoromethyl)sulfonyl]amino}methyl)benzenesulfonamide]
12 | 4.3 | O=c1[nH][nH]c2cc(S(=O)(=O)N(Cc3ccc(OC(F)(F)F)cc3)c3ncc4ccccc4c3C3CC3)ccc12 [Example 13, N-(4-cyclopropylisoquinolin-3-yl)-3-oxo-N-[4-(trifluoromethoxy)benzyl]-2,3-dihydro-1H-indazole-6-sulfonamide]
13 | 0.7 | Cc1c(N(Cc2ccc(OC(F)(F)F)cc2)S(=O)(=O)c2ccc(-c3nnn[nH]3)cc2)nc(C2CC2)c2ccccc12 [Example 14]
14 | 2 | O=S(=O)(c1ccc(-c2nnn[nH]2)cc1)N(Cc1ccc(OC(F)(F)F)cc1)c1ncc2ccccc2c1C(F)(F)F [Example 15]
15 | 1.6 | O=S(=O)(c1ccc(-c2nnn[nH]2)nc1)N(Cc1ccc(OC(F)(F)F)cc1)c1ncc2ccccc2c1C(F)(F)F [Example 16]
16 | 0.3 | Cc1cc(S(=O)(=O)N(Cc2ccc(OC(F)(F)F)cc2)c2ncc3ccccc3c2C2CC2)ccc1-c1nnn[nH]1 [Example 17]
17 | 0.9 | O=S(=O)(c1ccc(-c2nnn[nH]2)cc1)N(Cc1ccc(C(F)(F)F)cn1)c1ncc2ccccc2c1C1CC1 [Example 18]
18 | 3.2 | O=S(=O)(c1ccc(-c2ncn[nH]2)cc1)N(Cc1ccc(OC(F)(F)F)cc1)c1ncc2ccccc2c1C(F)(F)F [Example 20]
19 | 1.1 | Cc1n[nH]c(-c2ccc(S(=O)(=O)N(Cc3ccc(OC(F)(F)F)cc3)c3ncc4ccccc4c3C(F)(F)F)cc2)n1 [Example 21]
20 | 0.6 | Cc1n[nH]c(-c2ccc(S(=O)(=O)N(Cc3ccc(OC(F)(F)F)cc3)c3ncc4ccccc4c3C3CC3)cc2)n1 [Example 22]

Row | IC50 [nmol/L] | SMILES
21 | 0.5 | Cc1cc(S(=O)(=O)N(Cc2ccc(OC(F)(F)F)cc2)c2ncc3ccccc3c2C2CC2)ccc1-c1ncn[nH]1 [Example 23]
22 | 1.2 | O=S(=O)(c1ccc(-c2ncn[nH]2)cc1)N(Cc1ccc(C(F)(F)F)cn1)c1ncc2ccccc2c1C1CC1 [Example 24]
23 | 0.7 | Cc1n[nH]c(-c2ccc(S(=O)(=O)N(Cc3ccc(C(F)(F)F)cn3)c3ncc4ccccc4c3C3CC3)cc2)n1 [Example 25]
24 | 1 | Cc1cc(S(=O)(=O)N(Cc2ccc(C(F)(F)F)cn2)c2ncc3ccccc3c2C2CC2)ccc1-c1ncn[nH]1 [Example 26]
25 | 0.8 | Cc1n[nH]c(-c2ccc(S(=O)(=O)N(Cc3ccc(C(F)(F)F)cn3)c3ncc4ccccc4c3C3CC3)cc2C)n1 [Example 27]
26 | 3.5 | O=S(=O)(c1ccc(-c2ncn[nH]2)nc1)N(Cc1ccc(OC(F)(F)F)cc1)c1ncc2ccccc2c1C(F)(F)F [Example 28]
27 | 2.2 | Cc1n[nH]c(-c2ccc(S(=O)(=O)N(Cc3ccc(OC(F)(F)F)cc3)c3ncc4ccccc4c3C(F)(F)F)cn2)n1 [Example 29]
28 | 1.1 | Cc1n[nH]c(-c2ccc(S(=O)(=O)N(Cc3ccc(OC(F)(F)F)cc3)c3ncc4ccccc4c3C3CC3)cn2)n1 [Example 30]
29 | 1.1 | O=c1[nH]c(-c2ccc(S(=O)(=O)N(Cc3ccc(C(F)(F)F)cn3)c3ncc4ccccc4c3C3CC3)cc2)no1 [Example 31]
30 | 2.7 | Cc1c(N(Cc2ccc(OC(F)(F)F)cc2)S(=O)(=O)c2ccc(-c3noc(=O)[nH]3)cc2)nc(C2CC2)c2ccccc12 [Example 32]
31 | 3.6 | O=c1[nH]c(-c2ccc(S(=O)(=O)N(Cc3ccc(OC(F)(F)F)cc3)c3ncc4ccccc4c3C(F)(F)F)cn2)no1 [Example 33]
32 | 0.5 | Cc1cc(S(=O)(=O)N(Cc2ccc(OC(F)(F)F)cc2)c2ncc3ccccc3c2C2CC2)ccc1-c1noc(=O)[nH]1 [Example 34]
33 | 9.6 | O=c1[nH]c(-c2ccc(S(=O)(=O)N(Cc3ccc(OC(F)(F)F)cc3)c3ncc4ccccc4c3C3CC3)nc2)no1 [Example 35]
34 | 1.4 | Cc1cc(S(=O)(=O)N(Cc2ccc(OC(F)(F)F)cc2)c2ncc3ccccc3c2C2CC2)ccc1C(=O)O [Example 36, 4-({(4-cyclopropylisoquinolin-3-yl)[4-(trifluoromethoxy)benzyl]amino}sulfonyl)-2-methylbenzoic acid]
35 | 9.5 | Cc1cc(S(=O)(=O)N(Cc2ccc(C(F)(F)F)cn2)c2ncc3ccccc3c2C2CC2)ccc1C(=O)O [Example 37, 4-[((4-cyclopropylisoquinolin-3-yl){[5-(trifluoromethyl)pyridin-2-yl]methyl}amino)sulfonyl]-2-methylbenzoic acid]
36 | 0.7 | Cc1cc(C(=O)O)ccc1S(=O)(=O)N(Cc1ccc(OC(F)(F)F)cc1)c1ncc2ccccc2c1C1CC1 [Example 38, 4-({(4-cyclopropylisoquinolin-3-yl)[4-(trifluoromethoxy)benzyl]amino}sulfonyl)-3-methylbenzoic acid]
37 | 1.4 | COCc1cc(S(=O)(=O)N(Cc2ccc(OC(F)(F)F)cc2)c2ncc3ccccc3c2C2CC2)ccc1C(=O)O [Example 39, 4-({(4-cyclopropylisoquinolin-3-yl)[4-(trifluoromethoxy)benzyl]amino}sulfonyl)-2-(methoxymethyl)benzoic acid]
38 | 6.5 | Cc1cc(S(=O)(=O)N(Cc2ccc(OC(F)(F)F)cc2)c2nc(C3CC3)c3ccccc3c2C)ccc1C(=O)O [Example 40, 4-({(1-cyclopropyl-4-methylisoquinolin-3-yl)[4-(trifluoromethoxy)benzyl]amino}sulfonyl)-2-methylbenzoic acid]
39 | 1.1 | CNc1cc(S(=O)(=O)N(Cc2ccc(OC(F)(F)F)cc2)c2ncc3ccccc3c2C2CC2)ccc1C(=O)O [Example 41, 4-({(4-cyclopropylisoquinolin-3-yl)[4-(trifluoromethoxy)benzyl]amino}sulfonyl)-2-(methylamino)benzoic acid]
40 | 1.5 | Cc1cc(S(=O)(=O)N(Cc2ccc(OC(F)(F)F)cc2)c2ncc3ccccc3c2C2CC2)cc(F)c1C(=O)O [Example 42]

Row | SMILES | IC50 [nmol/L]
41 | O=c1[nH]nnn1-c1ccc(S(=O)(=O)N(Cc2ccc(OC(F)(F)F)cc2)c2ncc3ccccc3c2C2CC2)cc1 [Example 4, N-(4-cyclopropylisoquinolin-3-yl)-4-(5-oxo-4,5-dihydro-1H-tetrazol-1-yl)-N-[4-(trifluoromethoxy)benzyl]benzenesulfonamide] | 1.1
